Experimental data reported in US20180110762A1, “Compositions Methods for Treating Chronic Kidney Disease” (Merck Sharp & Dohme Corp, priority 2015, published 2018).
pIC50: −log10 of the molar value.

Target: T1, αvβ3 purified from 293 cells overexpressing αvβ3 (Homo sapiens, UniProt P05106+P06756)
T1 construct: made in house; host or cells: 293 cells overexpressing αvβ3
Assay: SPAV3 binding assay (scintillation proximity)
Description: • 1. Wheat germ agglutinin Scintillation Proximity Beads (SPA): Amersham • 2. Octylglucopyranoside: Calbiochem • 3. HEPES: Calbiochem • 4. NaCl: Fisher • 5. CaCl2: Fisher • 6. MgCl2: SIGMA • 7. Phenylmethylsulfonylfluoride (PMSF): SIGMA • 8. Optiplate: PACKARD • 9. (S)-3-(4-(2-(6-aminopyridin-2-yl)ethyl)benzamido)-2-((4-(iodo-^125I)phenyl)sulfonamido)propanoic acid as found in WO0046215 (specific activity 500-1000 Ci/mmole) • 10. Test compound • 11. Purified integrin receptor: αvβ3 was purified from 293 cells overexpressing αvβ3 (Duong et al., J. Bone Min. Res., 8:S378, 1993) according to Pytela (Methods in Enzymology, 144:475, 1987) • 12. Binding buffer: 50 mM HEPES, pH 7.8, 100 mM NaCl, 1 mM Ca^2+/Mg^2+, 0.5 mM PMSF • 13. 50 mM octylglucoside in binding buffer: 50-OG buffer
• 1. Pretreatment of SPA beads: • 500 mg of lyophilized SPA beads were first washed four times with 200 ml of 50-OG buffer and once with 100 ml of binding buffer, and then resuspended in 12.5 ml of binding buffer. • 2. Preparation of SPA beads and receptor mixture • In each assay tube, 2.5 μl (40 mg/ml) of pretreated beads were suspended in 97.5 μl of binding buffer and […] of 50-OG buffer. […] (˜30 ng/μ1) of purified receptor was added to the beads in suspension with stirring at room temperature for 30 minutes. The mixture was then centrifuged at 2,500 rpm in a Beckman GPR Benchtop centrifuge for 10 minutes at 4° C. The pellets were then resuspended in 50 μl of binding buffer and 25 μl of 50-OG buffer. • 3. Reaction • The following were sequentially added into Optiplate in corresponding wells: • (i) Receptor/beads mixture (75 μl) • (ii) 25 μl of each of the following: compound to be tested, binding buffer for total binding or A-8 for non-specific binding (final concentration 1 μM) • (iii) (S)-3-(4-(2-(6-aminopyridin-2-yl)ethyl)benzamido)-2-((4-(iodo-^125I)phenyl)sulfonamido)propanoic acid as found in WO0046215 (specific activity 500-1000 Ci/mmole) in binding buffer (25 μl, final concentration 40 pM) • (iv) Binding buffer (125 μl) • (v) Each plate was sealed with plate sealer from PACKARD and incubated overnight with rocking at 4° C. • 4. Plates were counted using PACKARD TOPCOUNT • 5. % inhibition was calculated as follows: • A=total counts • B=nonspecific counts • C=sample counts
% inhibition=[{(A−B)−(C−B)}/(A−B)]/(A−B)×100

T1 sequence (P06756 31-889 limits assumed): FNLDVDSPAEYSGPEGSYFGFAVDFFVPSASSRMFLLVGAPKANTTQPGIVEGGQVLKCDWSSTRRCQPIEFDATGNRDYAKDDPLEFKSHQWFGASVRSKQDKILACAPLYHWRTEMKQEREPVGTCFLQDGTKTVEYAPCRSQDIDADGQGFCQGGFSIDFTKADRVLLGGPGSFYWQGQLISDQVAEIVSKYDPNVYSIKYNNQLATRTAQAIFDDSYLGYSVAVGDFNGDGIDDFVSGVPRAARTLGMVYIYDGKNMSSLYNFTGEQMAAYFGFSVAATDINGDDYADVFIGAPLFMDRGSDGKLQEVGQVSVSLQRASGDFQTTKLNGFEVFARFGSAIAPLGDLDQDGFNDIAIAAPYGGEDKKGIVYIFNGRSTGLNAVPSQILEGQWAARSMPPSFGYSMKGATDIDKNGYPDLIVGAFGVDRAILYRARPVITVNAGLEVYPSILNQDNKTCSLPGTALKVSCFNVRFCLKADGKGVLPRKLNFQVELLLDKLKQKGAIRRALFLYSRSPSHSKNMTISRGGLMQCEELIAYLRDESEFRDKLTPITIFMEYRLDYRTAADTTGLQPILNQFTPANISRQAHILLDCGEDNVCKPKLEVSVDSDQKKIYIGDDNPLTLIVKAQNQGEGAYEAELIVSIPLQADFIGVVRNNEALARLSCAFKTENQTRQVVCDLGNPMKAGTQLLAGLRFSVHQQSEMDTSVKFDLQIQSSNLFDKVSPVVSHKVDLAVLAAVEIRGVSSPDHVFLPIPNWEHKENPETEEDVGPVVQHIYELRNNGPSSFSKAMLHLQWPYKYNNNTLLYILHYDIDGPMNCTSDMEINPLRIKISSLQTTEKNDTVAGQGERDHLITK
T1 sequence (P06756 891-1048 partner limits assumed): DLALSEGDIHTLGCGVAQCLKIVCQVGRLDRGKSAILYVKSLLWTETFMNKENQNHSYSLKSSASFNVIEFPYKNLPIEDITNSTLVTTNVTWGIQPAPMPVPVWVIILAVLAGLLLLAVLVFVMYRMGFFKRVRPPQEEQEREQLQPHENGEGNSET
T1 sequence (P05106 27-788): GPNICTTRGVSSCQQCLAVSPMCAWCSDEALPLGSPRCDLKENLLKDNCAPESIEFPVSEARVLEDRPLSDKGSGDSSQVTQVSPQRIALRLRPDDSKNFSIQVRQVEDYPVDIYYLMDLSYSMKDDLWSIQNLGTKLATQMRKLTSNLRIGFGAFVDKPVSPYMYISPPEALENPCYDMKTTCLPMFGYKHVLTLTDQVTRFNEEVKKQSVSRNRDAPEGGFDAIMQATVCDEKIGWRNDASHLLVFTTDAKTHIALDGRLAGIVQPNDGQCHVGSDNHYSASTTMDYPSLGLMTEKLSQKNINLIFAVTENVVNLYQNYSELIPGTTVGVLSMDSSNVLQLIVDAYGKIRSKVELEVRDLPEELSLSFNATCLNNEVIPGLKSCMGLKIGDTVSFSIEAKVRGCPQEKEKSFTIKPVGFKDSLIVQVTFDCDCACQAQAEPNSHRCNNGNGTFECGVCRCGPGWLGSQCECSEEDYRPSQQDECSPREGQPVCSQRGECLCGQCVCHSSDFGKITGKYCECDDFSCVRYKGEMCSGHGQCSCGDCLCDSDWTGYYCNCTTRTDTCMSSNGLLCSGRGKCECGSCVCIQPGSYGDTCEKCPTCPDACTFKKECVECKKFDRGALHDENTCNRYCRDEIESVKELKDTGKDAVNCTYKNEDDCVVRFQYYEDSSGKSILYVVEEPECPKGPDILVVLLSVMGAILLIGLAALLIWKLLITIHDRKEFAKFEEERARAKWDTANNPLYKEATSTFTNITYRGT

| Compound | pIC50 |
| --- | --- |
| Cc1ncc(C(CC(=O)O)CC(=O)CCCCc2ccc3c(n2)NCCCC3)cn1 [Compound H, 3(R) and 3(S)-(2-Methyl-pyrimidin-5-yl)-5-oxo-9-(5,6,7,8-tetrahydro-5H-pyrido[2,3-b]azepin-2-yl)-nonanoic Acid] | 9.70 |
| O=C(O)C[C@H](/C=C/CCCCc1ccc2c(n1)NCCC2)c1cncnc1 [Compound E, 3 (R)-(Pyrimidin-5-yl)-9-(5,6,7,8-tetrahydro-[1,8]-naphthyridin-2-yl)-(E)-non-4-enoic Acid] | 10.00 |
| Cc1ncc(C(CC(=O)O)CC(=O)CCCCc2ccc3c(n2)NCCC3)cn1 (single isomer, unassigned) [Compound G, 3(S or R)-(2-Methyl-pyrimidin-5-yl)-5-oxo-9-(5,6,7,8-tetrahydro-[1,8]naphthyridin-2-yl)-nonanoic Acid] | 10.00 |
| Cc1ncc([C@@H](CCCCCCc2ccc3c(n2)NCCC3)CC(=O)O)cn1 [Compound F] | 10.00 |

The remaining lines, values ahead:

| pIC50 | Compound |
| --- | --- |
| 10.00 | CCOc1ccc([C@H](CC(=O)O)N2CCN(CCCc3ccc4c(n3)NCCC4)C2=O)cn1 [Compound D] |
| 10.00 | COc1ccc([C@H](CC(=O)O)N2CCN(CCCc3ccc4c(n3)NCCC43CC3)C2=O)cn1 [Compound C] |
